Test results published in US5324857A, “Inhibition of the formation of nitrosamines” (Solvay Interox, priority 1992, dated 1994).

Key:
[1] = Nitrosamine formation during oxidation of dodecyldimethylamine with hydrogen peroxide under metal stress conditions, CDTMPA chelant, with free radical scavenger; conditions: for Nitrosamine content, total: MDNA + NDMA; for Nitrosamine content, total / Nitrosamine content, MDNA / Nitrosamine content, NDMA: 2.0 mmoles scavenger, CDTMPA, 60° C. then 75° C., total 4 hours; for Nitrosamine content, MDNA: methyldodecylnitrosamine; for Nitrosamine content, NDMA: nitrosodimethylamine; for reduction in nitrosamine formation: mixture already containing phosphonic acid chelating agent (CDTMPA), in words
Method: This Comparison and these Examples were each carried out using the following general method:-Dodecyldimethylamine (0.2012 moles, 42.94 g), and sufficient pure water to 150 g, ie approximately 106.9 g, were charged into a passivated 250 mL reaction flask, at ambient temperature together with 0.16 g of the stock metal solution described below to introduce 0.011 mmoles of transition metal impurities and thereby create stress conditions. […]
(§1) The stock metal solution was obtained by dissolving CuSO4.5H2O, 0.393 g, MnSO4.H2O, 0.1475 g, K2CrO4, 0.0935 g, Fe(NH4)2(SO4)2.6H2O, 3.5106 g, AlK(SO4)2.12H2O, 8.791 g in 500 mL water (deionized) containing 20 mL of 10%w/w sulfuric acid solution. It contained a total of 2350 ppm metals concentration. Thus, the concentration of metals in the reaction mixture was about 2.3 ppm.
(§2) The reaction mixture was then heated to a temperature of 60° C. and stirred. An aqueous hydrogen peroxide solution, 50% w/w solution, stabilized by sodium pyrophosphate at 70 ppm calculated as PO4, 15.03 g, was then delivered into the reaction mixture at a constant slow rate during the subsequent 45 minutes. In the Examples, but not in the Comparison, the hydrogen peroxide solution also contained 2.0 mmoles of a free radical scavenger, as specified below. When all the hydrogen peroxide had been introduced, the reaction temperature was increased to 75° C. and the reaction permitted to continue for a total of 4 hours. The mixture was then cooled and analyzed for yield of amine oxide and for the production of by-product volatile nitrosamines, specifically methyldodecylnitrosamine (MDNA) and nitrosodimethylamine (NDMA).

[2] = Nitrosamine formation during oxidation of dodecyldimethylamine with hydrogen peroxide under metal stress conditions, DTPA chelant, with free radical scavenger; conditions: for Nitrosamine content, total: MDNA + NDMA; for Nitrosamine content, total / Nitrosamine content, MDNA / Nitrosamine content, NDMA: 2.0 mmoles scavenger, DTPA 0.043 mmoles, 60° C. then 75° C., total 4 hours; for Nitrosamine content, MDNA: methyldodecylnitrosamine; for Nitrosamine content, NDMA: nitrosodimethylamine; for reduction in nitrosamine formation: mixture already containing carboxylate chelating agent (DTPA), in words
Method: This Comparison and these Examples were each carried out using the following general method:-Dodecyldimethylamine (0.2012 moles, 42.94 g), and sufficient pure water to 150 g, ie approximately 106.9 g, were charged into a passivated 250 mL reaction flask, at ambient temperature together with 0.16 g of the stock metal solution described below to introduce 0.011 mmoles of transition metal impurities and thereby create stress conditions. A chelating agent, DTPA, viz diethylenetriaminepentacarboxylic acid, 0.043 mmoles, was then introduced into the mixture to provide a mole ratio to the metal of about 4:1.
as §1, §2
The free radical scavengers were respectively 2,6-di-tert-butyl-4-methylphenol (BHT) in Ex2, butylated hydroxyanisole, a mixture of 2-tert-butylmethoxy anisole and 3-tert-butylmethoxy anisole (BHA) in Ex3, ethyl gallate (EtG) in Ex4 and propyl gallate (PrG) in Ex5.

SMILES	Nitrosamine content, total [1]	Nitrosamine content, MDNA [1]	Nitrosamine content, NDMA [1]	Nitrosamine content, total [2]	Nitrosamine content, MDNA [2]	Nitrosamine content, NDMA [2]	reduction in nitrosamine formation [1]	reduction in nitrosamine formation [2]
COc1ccc(O)c(C(C)(C)C)c1 [BHA, butylated hydroxyanisole]	276 ppb	151 ppb	125 ppb	779 ppb	652 ppb	127 ppb	–	–
O=C(O)CCSCCC(=O)O [TPA, thiodipropionic acid]	541 ppb	444 ppb	97 ppb	–	–	–	–	–
CCCOC(=O)c1cc(O)c(O)c(O)c1 [PrG, propyl gallate]	80 ppb	59 ppb	21 ppb	308 ppb	230 ppb	78 ppb	marked reduction in nitrosamine formation	marked reduction in nitrosamine formation
CCC(C)O (stereo not shown) [BuL, 2-butanol]	1261 ppb	582 ppb	679 ppb	–	–	–	–	–
CCOC(=O)c1cc(O)c(O)c(O)c1 [EtG, ethyl gallate]	87 ppb	57 ppb	30 ppb	407 ppb	334 ppb	73 ppb	marked reduction in nitrosamine formation	marked reduction in nitrosamine formation
Cc1cc(C(C)(C)C)c(O)c(C(C)(C)C)c1 [BHT, 2,6-di-tert-butyl-4-methylphenol]	335 ppb	212 ppb	123 ppb	1794 ppb	1420 ppb	374 ppb	–	–
